In general, inhibition refers to the percentage by which the read-out fell short of the control. By IC50 is commonly meant the midpoint of a concentration-inhibition curve.

This is an account of results in ChEMBL document CHEMBL1811792, “Ligand-based modelling followed by synthetic exploration unveil novel glycogen phosphorylase inhibitory leads” (Bioorg Med Chem, 2011).

For experiment [1], the target named is T1, Glycogen phosphorylase, muscle form (Oryctolagus cuniculus) (UniProt P00489).
T1 sequence (whole entry): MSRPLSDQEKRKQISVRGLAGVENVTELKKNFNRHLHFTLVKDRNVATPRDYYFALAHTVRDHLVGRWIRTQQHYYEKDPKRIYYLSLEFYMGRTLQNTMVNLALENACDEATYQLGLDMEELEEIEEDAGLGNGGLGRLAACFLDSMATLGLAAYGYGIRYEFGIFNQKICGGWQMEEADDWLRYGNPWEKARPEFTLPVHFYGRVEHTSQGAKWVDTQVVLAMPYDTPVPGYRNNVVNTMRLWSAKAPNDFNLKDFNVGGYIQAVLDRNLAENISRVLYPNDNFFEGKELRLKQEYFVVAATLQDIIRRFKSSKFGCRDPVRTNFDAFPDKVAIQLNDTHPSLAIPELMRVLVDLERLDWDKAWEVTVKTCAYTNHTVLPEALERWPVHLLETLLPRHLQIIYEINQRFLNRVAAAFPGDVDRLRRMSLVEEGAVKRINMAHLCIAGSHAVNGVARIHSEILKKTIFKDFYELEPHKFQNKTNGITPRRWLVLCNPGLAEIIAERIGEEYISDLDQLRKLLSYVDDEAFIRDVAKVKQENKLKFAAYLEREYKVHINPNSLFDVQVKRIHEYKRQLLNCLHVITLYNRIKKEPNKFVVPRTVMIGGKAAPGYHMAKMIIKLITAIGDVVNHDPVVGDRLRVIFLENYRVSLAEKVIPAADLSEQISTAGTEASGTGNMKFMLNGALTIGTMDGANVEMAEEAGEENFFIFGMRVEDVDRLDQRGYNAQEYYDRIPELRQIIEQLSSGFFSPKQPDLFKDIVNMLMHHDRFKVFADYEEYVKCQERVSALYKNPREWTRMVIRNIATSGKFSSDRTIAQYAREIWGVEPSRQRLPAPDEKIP
The experiment in a line: Inhibition of rabbit muscle glycogen phosphorylase […] assessed as release of phosphate from glucose-1- phosphate at 10 uM after 20 mins.

The target of experiment [2] is T2, Glycogen phosphorylase, muscle form (Oryctolagus cuniculus, UniProt P00489).
T2 sequence (P00489 whole entry): T1 sequence (whole entry)
Nature of the experiment: Inhibition of rabbit muscle glycogen phosphorylase […] assessed as release of phosphate from glucose-1- phosphate after 20 mins.

With `CSc1ccc(NC(=O)Nc2ccccc2C(N)=O)cc1`, the inhibition in experiment [1] was 17%. Take `Cc1ccc(S(=O)(=O)CC2CCc3ccccc3C2=O)cc1` (stereo unspecified): in experiment [2], the IC50 turned out to be 16.5 µM. The inhibition in experiment [1] amounted to 49%. On to `COc1ccccc1NC(=O)C(=O)Nc1ccccn1`, for which the inhibition in experiment [1] stood at 5%.

Consider `COC(=O)c1ccccc1NC(=O)Nc1ccc(SC)cc1`, for which, in experiment [1], the inhibition came out at 7%. `NC(=O)c1ccccc1NC(=O)COc1ccc(Cl)cc1`: the inhibition in experiment [1] was 38%. Consider `Cc1cccc(NC(=O)CC(=O)Nc2cccc(C)c2)c1`, for which the inhibition in experiment [1] turned out to be 4%.

Regarding `COC(=O)c1ccccc1NC(=O)Nc1cccc(OC)c1`, the inhibition in experiment [1] was 12%. Consider `CSc1cccc(NC(=O)Nc2ccccc2C(N)=O)c1`, for which the inhibition in experiment [1] was 36%. With `Cc1ccccc1NC(=O)C(=O)Nc1ccccc1C`, in experiment [2], the IC50 was 5.4 µM. The inhibition in experiment [1] stood at 55%. Turning to `CCOC(=O)C(=O)CC(=O)c1ccc(OC)cc1`, the inhibition in experiment [1] was found to be 34%. On the same count and under the same terms, next, `COc1ccc2cc(-c3ccc(OC)c(OC)c3)c(=O)oc2c1`: 24%; `C/C=C/c1cc(OC)c2c(c1)[C@H](C)[C@@H](c1ccc(O)c(OC)c1)O2`: 8%. For `Cc1cc(S(=O)(=O)Nc2nc3ccccc3[nH]2)c(S)cc1Cl`, the IC50 in experiment [2] came out at 6.9 µM. In addition, the inhibition in experiment [1] was 45%. `CCOc1ccc(NC(=O)c2cc3ccccc3cc2O)cc1`: in experiment [1], the inhibition came out at 22%. On to `CN(C)c1ccc(/C=C/C(=O)c2cc(Cl)ccc2O)cc1`, for which the inhibition in experiment [1] was determined as 25%.

Regarding `CSc1ccc(NC(=O)C2CCCCC2C(=O)O)cc1` (stereo unspecified), the inhibition in experiment [1] was found to be 17%. As for `Cc1ccccc1NC(=O)CC(=O)Nc1ccccc1C`, in experiment [1], the inhibition is 2%. In the case of `O=C(CC(=O)NCc1ccccc1)NCc1ccccc1`, in experiment [1], the inhibition stood at 1%. Take `Cc1cc(S(=O)(=O)Nc2nnc3c4ccccc4ccn23)c(S)cc1Cl`: the half-maximal inhibitory concentration (IC50) in experiment [2] is 7.5 µM. In experiment [1], the inhibition was 42%. `O=C1Oc2ccccc2N/C1=C/C(=O)c1ccc(Cl)cc1`: the inhibition in experiment [1] was 26%. With `Cc1cc(S(=O)(=O)Nc2nnc3c(C(F)(F)F)cc(Cl)cn23)c(S)cc1Cl`, in experiment [2], the IC50 is 5.9 µM. The inhibition in experiment [1] is 53%.
